Assay [1] concerns the target T1, hVR1 receptors (Homo sapiens, UniProt Q8NER1). Put plainly: Broadly stimulated recombinant human VR1 functional assay (Ca2+ influx, FLIPR). Type of assay: cell-based. Also noted: expressed in transfected cells; host or cells: HEK293.
Assay [2] has as its target T1, hVR1 receptors. Put plainly: [3H] RTX binding assay, human VR1. Details: expressed in transfected cells; host or cells: HEK293 (membrane preparation). As to conditions: inhibition of [3H] RTX binding, membranes of HEK293 cells transfected with human VR1. The procedure:
Compounds of the present invention were tested for their ability to inhibit the binding of [^3H] RTX to hVR1 receptors in a [^3H] RTX binding assay as previously described (Zhang, Sui-Po. Improved ligand binding assays for vanilloid receptors. PCT Int. Appl. (2002), 29 pp. CODEN: PIXXD2 WO 0233411 A1 20020425 AN 2002:315209; Grant, Elfrida R.; Dubin, Adrienne E.; Zhang, Sui-Po; Zivin, Robert A.; Zhong, Zhong Simultaneous intracellular calcium and sodium flux imaging in human vanilloid receptor 1 (VR1)-transfected human embryonic kidney cells: a method to resolve ionic dependence of VR1-mediated cell death. Journal of Pharmacology and Experimental Therapeutics (2002), 300(1), 9-17.)
HEK293 cells were transfected with human VR1 vanilloid receptors and washed with Hank's Balanced Salt Solution, dissociated with cell dissociation buffer (Sigma), and then centrifuged at 1000×g for 5 min. Cell pellets were homogenized in cold 20 mM HEPES buffer, pH 7.4, containing 5.8 mM NaCl, 320 mM sucrose, 2 mM MgCl2, 0.75 CaCl2 and 5 mM KCl and centrifuged at 1000×g for 15 min. The resultant supernate was then centrifuged at 40000×g for 15 min. The pelleted membranes were kept in an −80° C. freezer.
Approximately 120 μg protein/ml from membranes were incubated with indicated concentrations of [^3H] RTX in 0.5 ml of the HEPES buffer (pH 7.4) containing 0.25 mg/mL fatty acid-free bovine serum albumin at 37° C. for 60 min. The reaction mixture was then cooled to 4° C., 0.1 mg α1-acid glycoprotein added to each sample and incubated at 4° C. for 15 min. The samples were centrifuged at 18500×g for 15 min. The tip of the microcentrifuge tube containing the pellet was cut off. Bound radioactivity was quantified by scintillation counting. Non-specific binding was tested in the presence of 200 nM unlabeled RTX.

In assay [3] the target is T2, VR1 expressed endogenously on small rat dorsal root ganglion (DRG) neurons (Rattus norvegicus, UniProt O35433).
T2 construct: VR1 expressed endogenously on small rat dorsal root ganglion (DRG) neurons; endogenous in cells; host or cells: dissociated DRG neurons from normal rats
Put plainly: Electrophysiologic functional assay using dissociated rat DRG cells (whole cell patch clamp). It counts as cell-based. As to conditions: for inhibition of the response to 1 uM capsaicin: capsaicin-induced currents in rat DRG neurons; for % of the initial CAP response in presence of 1 uM CAP / % of the initial CAP response in presence of 10 uM CAP: initial response to 0.3 uM capsaicin. How it is done: Compounds 42, 95, 101, 105 and 106 were tested for their activity on VR1 expressed endogenously on small rat dorsal root ganglion (DRG) neurons. DRG neurons from normal rats were dissociated (see methods in Chaplan et al., 2003) and whole cell currents mediated by VR1 were recorded using the whole cell patch clamp technique. […] This was followed by application of 10 μM CAP in the presence of compound. […] The ability of 1 and 10 μM CAP to cause an increased current after exposure to a compound of the invention was compared to controls.
A general note: In patch-clamp work, channel activity is measured electrically.

Assay [4] has as its target Rat VR1 (Rattus norvegicus, UniProt O35433). Kind of assay: [3H]-RTX binding assay using rat tissue (spinal cord). Details: Rat spinal cord was homogenized twice with a Polytron; from tissue; host or cells: rat spinal cord membranes. As to conditions: rat spinal cord membranes. The procedure:
Alternatively, a binding assay using rat tissue was used. Rat spinal cord was homogenized twice with a Polytron and centrifuged at 3000 rpm for 10 min in HEPES buffer containing 20 mM HEPES, pH 7.4, NaCl 5.8 mM, sucrose 320 mM, MgCl2 2 mM, CaCl2 0.75 mM and KCl 5 mM. The supernatant was then centrifuged at 18,000 rpm for 20 min. The pellet was saved in a tube and 10 ml assay buffer was added into the tube. The pellet and buffer were mixed with a Polytron. The assay contained 120 μg/ml membrane protein and 0.3-0.6 nM [^3H]-RTX (NEN, Boston) in a total volume of 0.5 ml HEPES buffer. Following-incubation for 60 min at 37 C, the samples were cooled down on ice, and 100 mg of α-acid glycoprotein were added into the samples. After centrifugation at 13,000 rpm for 15 min, the supernatant was aspirated and the tips of tubes were cut off and placed into 6 ml vials. Data were calculated according to the equation: % inhibition=(total binding−binding)*100/(total binding−non specific binding). Ki value values were calculated using a Prism program.

The test system of assay [5] is carrageenan paw-induced thermal hyperalgesia. Kind of assay: Carrageenan paw-induced thermal hyperalgesia. It counts as in vivo, rat. As to conditions: for ED50: Rattus norvegicus, po; for % Recovery: at 1 mg/ml. The procedure: Each rat was placed on a heated surface (51° C.) in order to measure the time necessary to elicit a response, and an initial (baseline) response time to a thermal stimuli was recorded for each animal. A response is defined as any shaking, licking, or tucking of the treated paw or jumping. Animals not treated with a test compound respond in approximately 20 seconds. The maximal exposure time permitted is 60 seconds to prevent tissue damage. Rats were injected with an irritant (e.g., 1% carrageenan solution in 0.9% saline) subcutaneously into the sub-plantar tissue of the left hind paw to stimulate an acute inflammatory reaction.
Two hours later, the response time of the animal to the thermal stimulus was evaluated and compared to the animal's baseline response time. This shorter response time was recorded as percent hyperalgesia (% H). A cut-off value for % H (usually 75%) was used during analysis to ensure that the animals were hyperalgesic. Animals were then dosed with test drug or vehicle.
At some time(s) later (typically 45 and 90 minutes), the response time of the animal to the thermal stimulus was again evaluated. For each time point, a percent reversal of hyperalgesia (% R) was calculated using the following formula: % R=(Drug Latency−Carrageenan latency)/(Baseline latency−Carrageenan latency). ED50 values were calculated from % R obtained at several drug doses.
(In general: Carrageenan injected into the paw causes an acute inflammation.)

Where [6] appears, read: 1.5 h, p.o., at 90 min, read-out: ED50.
The mark [7] stands for this setting: reversal of hyperalgesia, read-out: CgHP ED50.

pIC50, pKi: −log10 of the molar value. Like-named read-outs stand apart in the source and are kept apart here.

Results on 21 molecules are retold here after patent US7678812B2, “Aminotetralin-derived urea modulators of vanilloid VR1 receptor” (Janssen Pharmaceutica NV, priority 2002, dated 2010).

The term pKi denotes −log10 of the Ki, conventionally taken in molar units. A high value points to a small Ki. The term ED50 denotes the midpoint of the dose-response relation.

T1 sequence (Q8NER1 whole entry): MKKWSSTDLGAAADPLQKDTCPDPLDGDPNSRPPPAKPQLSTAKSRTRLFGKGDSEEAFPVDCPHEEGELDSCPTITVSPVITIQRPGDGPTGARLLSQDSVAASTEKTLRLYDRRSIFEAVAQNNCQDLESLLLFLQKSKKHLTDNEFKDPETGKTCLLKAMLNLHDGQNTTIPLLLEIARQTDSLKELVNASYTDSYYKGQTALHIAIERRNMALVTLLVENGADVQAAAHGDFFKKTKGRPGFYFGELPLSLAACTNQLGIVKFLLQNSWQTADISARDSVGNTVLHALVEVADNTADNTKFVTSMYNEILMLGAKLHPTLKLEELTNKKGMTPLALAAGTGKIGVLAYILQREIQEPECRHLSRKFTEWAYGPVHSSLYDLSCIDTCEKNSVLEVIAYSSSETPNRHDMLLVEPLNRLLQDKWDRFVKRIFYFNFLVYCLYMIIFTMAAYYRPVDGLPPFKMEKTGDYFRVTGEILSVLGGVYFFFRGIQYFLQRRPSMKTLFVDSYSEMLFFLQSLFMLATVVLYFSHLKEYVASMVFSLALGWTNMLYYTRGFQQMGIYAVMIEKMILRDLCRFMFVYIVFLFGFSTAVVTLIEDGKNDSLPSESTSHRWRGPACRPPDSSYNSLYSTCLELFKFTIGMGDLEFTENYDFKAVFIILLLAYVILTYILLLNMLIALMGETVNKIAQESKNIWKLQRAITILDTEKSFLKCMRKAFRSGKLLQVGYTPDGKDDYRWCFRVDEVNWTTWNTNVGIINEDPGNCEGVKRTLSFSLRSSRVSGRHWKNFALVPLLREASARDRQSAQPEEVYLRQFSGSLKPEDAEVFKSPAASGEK
T2 sequence (O35433 whole entry): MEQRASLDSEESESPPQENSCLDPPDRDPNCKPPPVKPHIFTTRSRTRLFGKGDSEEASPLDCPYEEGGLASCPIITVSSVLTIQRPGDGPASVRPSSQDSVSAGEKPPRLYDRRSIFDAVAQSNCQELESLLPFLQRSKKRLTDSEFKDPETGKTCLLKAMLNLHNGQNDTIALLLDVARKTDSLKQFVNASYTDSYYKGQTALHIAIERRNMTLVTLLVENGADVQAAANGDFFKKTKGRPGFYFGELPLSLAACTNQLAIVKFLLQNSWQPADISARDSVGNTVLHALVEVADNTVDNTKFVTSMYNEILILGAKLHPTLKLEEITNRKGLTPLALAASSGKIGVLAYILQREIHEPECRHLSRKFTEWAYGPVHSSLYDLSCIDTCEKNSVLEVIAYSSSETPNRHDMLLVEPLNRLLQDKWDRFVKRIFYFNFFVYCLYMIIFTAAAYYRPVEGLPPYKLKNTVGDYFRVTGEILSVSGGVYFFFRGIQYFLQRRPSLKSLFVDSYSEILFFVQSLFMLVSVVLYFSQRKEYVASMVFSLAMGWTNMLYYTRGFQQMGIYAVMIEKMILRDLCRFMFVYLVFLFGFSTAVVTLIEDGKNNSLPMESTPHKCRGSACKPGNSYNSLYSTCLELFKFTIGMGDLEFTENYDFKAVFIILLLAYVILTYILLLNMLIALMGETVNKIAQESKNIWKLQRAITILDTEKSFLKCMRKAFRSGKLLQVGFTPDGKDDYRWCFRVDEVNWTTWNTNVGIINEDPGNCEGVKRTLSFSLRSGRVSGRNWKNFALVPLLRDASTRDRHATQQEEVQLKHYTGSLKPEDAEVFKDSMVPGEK
Rat VR1, sequence (O35433 whole entry): as above

On to `Oc1cc2c(cc1O)CN(C(=S)NCCc1ccc(Cl)cc1)CCC2` [Capsazepine, capsazepine, reference compound], for which the pIC50 in assay [1] (human recombinant receptor, FIG. 1, read-out: potency to inhibit Ca2+ activity induced by the panel of stimuli) was 6.52 to 7.00.

Take `Cc1cc2c(NC(=O)NC3CCc4cc(F)ccc4C3Cc3ccccc3)cccc2cn1` (single isomer, unassigned) [Compound 101]: the pKi in assay [2] is 8.95; in assay [4], 7.27. Besides, the “inhibition of the response to 1 uM capsaicin” value in assay [3] is on record as “dose dependent”. In addition, the “% of the initial CAP response in presence of 1 uM CAP” value in assay [3] (compound concentration 0.03 uM) stood at 14%; in assay [3] (compound concentration 0.1 uM) it was 0%. The “% of the initial CAP response in presence of 10 uM CAP” value in assay [3] (compound concentration 0.03 uM) was 54%; in assay [3] (compound concentration 0.1 uM), 0%.

As for `O=C(Nc1cccc2cnccc12)NC1CCc2cc(F)ccc2C1Cc1ccc(C(F)(F)F)cc1` (centres unmarked) [Compound 107], the pKi was 9.03 in assay [2] and 7.54 in assay [4]. Moreover, the ED50 in assay [5] (setting [6]) came out at 0.92 mg/kg.

For the molecule `O=C(Nc1cccc2c[n+]([O-])ccc12)NC1CCc2cc(F)ccc2C1Cc1cccc(C(F)(F)F)c1` (single isomer, unassigned) [Compound 120], the pKi in assay [2] is 7.02; in assay [4], 5.00. Further, the “% Recovery” value in assay [5] (at 90 min) is 83.0%.

In the case of `O=C(Nc1cccc2c[n+]([O-])ccc12)NC1CCc2cc(Cl)ccc2C1Cc1ccccc1` (centres unmarked) [Compound 106], the pKi in assay [2] was 8.07; in assay [4], 5.55. The ED50 in assay [5] (setting [6]) was 0.027 mg/kg. Further, the “% of the initial CAP response in presence of 1 uM CAP” value in assay [3] (compound concentration 1 uM) came to 2%. In addition, the “% of the initial CAP response in presence of 10 uM CAP” value in assay [3] (compound concentration 1 uM) is recorded as 11%.

`O=C(Nc1cccc2c[n+]([O-])ccc12)NC1CCc2cc(F)ccc2C1Cc1cccc(C(F)(F)F)c1` (single isomer, unassigned) [Compound 121]: the results for the pKi in assay [2] and in assay [4] were 8.24 and 7.05, respectively. In addition, in assay [5] (at 90 min), the “% Recovery” value is 80.1%.

On to `O=C(Nc1cccc2cnccc12)NC1CCc2c(Cl)cccc2C1Cc1ccccc1` (centres unmarked) [Compound 42], for which, in assay [2], the pKi was 8.71. In assay [3] (compound concentration 0.3 uM), the “% of the initial CAP response in presence of 1 uM CAP” value was 0%.

Take `COc1ccc2c(c1)CCC(NC(=O)Nc1cccc3cnccc13)C2Cc1ccsc1` (centres unmarked) [Compound 89]: the pKi in assay [4] is 5.97.

As to `C=CCC1c2ccccc2CCC1NC(=O)Nc1cccc2cnccc12` (centres unmarked) [Compound 57], the pKi in assay [2] was 7.81. Besides, in assay [5] (setting [7]), the 50% effective dose (ED50) came out at 0.354 mg/kg.

For `O=C(Nc1cccc2cnccc12)NC1CCc2cc(F)ccc2C1Cc1cccc(C(F)(F)F)c1` (single isomer, unassigned) [Compound 119], the pKi is 9.30 in assay [2] and 6.82 in assay [4].

With `O=C(Nc1cccc2cnccc12)N[C@@H]1CCc2cc(F)ccc2[C@@H]1Cc1ccoc1` (relative stereo) [Compound 88], the pKi in assay [2] was 7.81; in assay [4] it was 5.90.

With `COc1ccc2c(c1)CCC(NC(=S)NCCc1ccc(Cl)cc1)C2Cc1ccccc1` (centres unmarked) [Compound 17], in assay [5] (setting [7]), the ED50 came out at 20 mg/kg.

`O=C(Nc1cccc2cnccc12)NC1CCc2cc(Cl)ccc2C1Cc1ccccc1` (centres unmarked) [Compound 95] gave a pKi in assay [2] of 8.77. Moreover, in assay [3], the “inhibition of the response to 1 uM capsaicin” value was “dose dependent”. Moreover, in assay [3] (compound concentration 0.03 uM), the “% of the initial CAP response in presence of 1 uM CAP” value is 78% and the “% of the initial CAP response in presence of 10 uM CAP” value came out at 1073%. Also, the pKi in assay [4] was 6.66.

As for `O=C(Nc1cccc2cnccc12)NC1CCc2ccccc2C12Cc1ccccc1C2` (centres unmarked) [Compound 122, Spiro{indan-2,1′-(1′,2′,3′,4′-tetrahydronaphthalene)-2′-yl}-3-isoquinolin-5-yl-urea], the pKi in assay [2] is 7.14; in assay [4], 5.77.

With `OO` [Compound H2O2, H2O2, reference compound], the “EC80 for H2O2-induced Ca2+ flux” value in assay [1] (VR1/HEK cells, species not stated) was 0.015 % H2O2.

As for `COCOc1ccc(CNC(=S)NC2CCc3ccccc3C2Cc2cccnc2)cc1OC` (centres unmarked) [Compound 4], the 50% effective dose (ED50) in assay [5] (setting [7]) was found to be 0.804 mg/kg.

As for `Cc1cc2c(NC(=O)NC3CCc4cc(F)ccc4C3Cc3ccccc3)cccc2cn1` (single isomer, unassigned) [Compound 100], the pKi is 8.28 in assay [2] and 6.11 in assay [4].

Consider `O=C(Nc1cccc2cnccc12)NC1CCc2cc(F)ccc2C1Cc1cccc(C(F)(F)F)c1` (single isomer, unassigned) [Compound 118], for which the negative logarithm of the Ki (pKi) in assay [2] is 8.67; in assay [4], 6.77.

With `O=C(Nc1cccc2cnccc12)NC1CCc2cc(F)ccc2C1Cc1cccc(C(F)(F)F)c1` (racemic) [Compound 110], the figures for the negative-log Ki (pKi) in assay [2] and in assay [4] were 9.27 and 6.73, respectively. Besides, the “% Recovery” value in assay [5] (at 90 min) is listed as 64.3%.

Regarding `COc1ccc2c(c1)CC[C@@H](NC(=O)Nc1cccc3cnccc13)[C@@H]2Cc1ccc(F)cc1F` (relative stereo) [Compound 91], the negative-log Ki (pKi) in assay [4] is 5.83.

Regarding `COc1ccc2c(c1)CC[C@@H](NC(=O)Nc1cccc3cnccc13)[C@H]2Cc1ccc(F)cc1F` (relative stereo) [Compound 90], the pKi in assay [4] was 6.59.
